Experiment [1] concerns the target Mitogen-activated protein kinase kinase kinase 1 (Homo sapiens, UniProt Q13233).
Experiment [2] has as its target Mitogen-activated protein kinase kinase kinase 4 (Homo sapiens, UniProt Q9Y6R4).
For a further experiment, the target named is Obg-like ATPase 1 (Homo sapiens, UniProt Q9NTK5).
In experiment [3] the target is Serine/threonine-protein kinase SIK2 (Homo sapiens, UniProt Q9H0K1).
Experiment [4] concerns the target T1, Serine/threonine-protein kinase TAO3 (Homo sapiens, UniProt Q9H2K8).
T1 sequence (Q9H2K8 whole entry): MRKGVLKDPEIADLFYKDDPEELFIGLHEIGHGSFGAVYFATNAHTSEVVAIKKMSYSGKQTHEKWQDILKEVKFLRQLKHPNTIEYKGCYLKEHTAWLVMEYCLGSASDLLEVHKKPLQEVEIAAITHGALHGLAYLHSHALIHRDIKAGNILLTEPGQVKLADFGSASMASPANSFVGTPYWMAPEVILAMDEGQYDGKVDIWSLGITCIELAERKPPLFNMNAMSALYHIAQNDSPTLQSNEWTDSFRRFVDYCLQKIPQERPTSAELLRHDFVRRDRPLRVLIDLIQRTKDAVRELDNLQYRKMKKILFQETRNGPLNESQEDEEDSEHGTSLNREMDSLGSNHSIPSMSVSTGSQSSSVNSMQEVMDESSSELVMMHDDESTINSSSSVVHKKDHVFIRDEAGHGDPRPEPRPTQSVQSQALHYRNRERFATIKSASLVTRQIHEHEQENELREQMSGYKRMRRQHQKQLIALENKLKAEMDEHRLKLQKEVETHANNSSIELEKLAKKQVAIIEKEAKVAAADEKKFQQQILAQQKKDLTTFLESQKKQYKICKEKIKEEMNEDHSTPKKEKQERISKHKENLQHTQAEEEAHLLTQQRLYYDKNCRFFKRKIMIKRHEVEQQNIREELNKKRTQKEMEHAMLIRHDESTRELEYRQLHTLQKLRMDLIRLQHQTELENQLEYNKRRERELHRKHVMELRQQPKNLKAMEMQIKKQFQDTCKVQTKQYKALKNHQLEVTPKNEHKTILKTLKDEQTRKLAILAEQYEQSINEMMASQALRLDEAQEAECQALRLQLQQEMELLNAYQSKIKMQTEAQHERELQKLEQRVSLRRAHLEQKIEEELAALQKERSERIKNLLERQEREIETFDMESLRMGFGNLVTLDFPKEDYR

In experiment [5] the target is TRAF2 and NCK-interacting protein kinase (Homo sapiens, UniProt Q9UKE5).
Experiment [6] deals with DNA topoisomerase 2-alpha (Homo sapiens, UniProt P11388).
The target in experiment [7] is Tyrosine-protein kinase BTK (Homo sapiens, UniProt Q06187).
Tyrosine-protein kinase BTK, sequence (Q06187 whole entry): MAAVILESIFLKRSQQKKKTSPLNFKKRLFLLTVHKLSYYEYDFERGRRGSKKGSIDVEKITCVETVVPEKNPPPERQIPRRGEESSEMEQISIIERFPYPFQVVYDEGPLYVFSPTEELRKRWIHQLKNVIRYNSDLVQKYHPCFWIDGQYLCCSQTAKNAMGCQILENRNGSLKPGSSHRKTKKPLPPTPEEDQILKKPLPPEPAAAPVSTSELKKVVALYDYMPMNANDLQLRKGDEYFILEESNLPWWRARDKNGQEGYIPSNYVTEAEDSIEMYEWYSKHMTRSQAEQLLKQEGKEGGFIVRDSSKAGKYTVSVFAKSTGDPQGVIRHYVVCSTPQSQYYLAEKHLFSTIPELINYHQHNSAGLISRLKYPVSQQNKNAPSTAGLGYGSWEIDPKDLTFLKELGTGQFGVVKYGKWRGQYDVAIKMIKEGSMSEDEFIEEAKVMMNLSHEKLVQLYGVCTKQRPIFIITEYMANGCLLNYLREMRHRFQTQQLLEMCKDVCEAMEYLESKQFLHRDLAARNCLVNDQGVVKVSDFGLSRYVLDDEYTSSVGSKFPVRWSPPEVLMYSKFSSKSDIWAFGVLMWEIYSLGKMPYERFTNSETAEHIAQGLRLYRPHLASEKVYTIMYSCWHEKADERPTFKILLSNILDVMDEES
Experiment [8] addresses Rho-associated protein kinase 2 (Homo sapiens, UniProt O75116).
Experiment [9] concerns the target T2, Receptor-type tyrosine-protein kinase FLT3 (Homo sapiens, UniProt P36888).
T2 sequence (P36888 whole entry): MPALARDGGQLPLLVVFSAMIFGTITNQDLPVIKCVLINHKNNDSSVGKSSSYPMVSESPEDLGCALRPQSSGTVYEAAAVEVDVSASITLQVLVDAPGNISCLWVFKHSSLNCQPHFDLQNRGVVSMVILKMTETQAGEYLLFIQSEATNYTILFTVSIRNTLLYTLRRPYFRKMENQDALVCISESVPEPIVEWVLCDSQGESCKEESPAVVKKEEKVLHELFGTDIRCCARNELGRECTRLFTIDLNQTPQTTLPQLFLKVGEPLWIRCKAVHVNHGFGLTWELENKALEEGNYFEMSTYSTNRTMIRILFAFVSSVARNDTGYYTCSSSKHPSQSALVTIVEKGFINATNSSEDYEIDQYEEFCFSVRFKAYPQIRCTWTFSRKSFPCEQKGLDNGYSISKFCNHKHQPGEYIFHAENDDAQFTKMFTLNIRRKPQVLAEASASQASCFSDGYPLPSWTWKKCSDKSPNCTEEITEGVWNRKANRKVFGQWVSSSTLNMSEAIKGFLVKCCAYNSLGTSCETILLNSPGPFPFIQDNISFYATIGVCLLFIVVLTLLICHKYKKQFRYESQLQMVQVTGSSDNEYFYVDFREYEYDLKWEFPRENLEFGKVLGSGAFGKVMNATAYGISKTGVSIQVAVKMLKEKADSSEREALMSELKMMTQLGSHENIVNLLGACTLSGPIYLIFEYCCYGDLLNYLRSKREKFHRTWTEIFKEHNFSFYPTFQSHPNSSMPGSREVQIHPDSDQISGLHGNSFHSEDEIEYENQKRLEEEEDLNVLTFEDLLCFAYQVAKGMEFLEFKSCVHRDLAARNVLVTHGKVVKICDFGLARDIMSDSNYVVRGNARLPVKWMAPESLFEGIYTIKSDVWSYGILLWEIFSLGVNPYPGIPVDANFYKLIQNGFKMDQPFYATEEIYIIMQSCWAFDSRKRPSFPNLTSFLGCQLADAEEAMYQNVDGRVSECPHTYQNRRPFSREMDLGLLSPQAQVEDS

For experiment [10], the target named is T3, Non-receptor tyrosine-protein kinase TNK1 (Homo sapiens, UniProt Q13470).
T3 sequence (Q13470 whole entry): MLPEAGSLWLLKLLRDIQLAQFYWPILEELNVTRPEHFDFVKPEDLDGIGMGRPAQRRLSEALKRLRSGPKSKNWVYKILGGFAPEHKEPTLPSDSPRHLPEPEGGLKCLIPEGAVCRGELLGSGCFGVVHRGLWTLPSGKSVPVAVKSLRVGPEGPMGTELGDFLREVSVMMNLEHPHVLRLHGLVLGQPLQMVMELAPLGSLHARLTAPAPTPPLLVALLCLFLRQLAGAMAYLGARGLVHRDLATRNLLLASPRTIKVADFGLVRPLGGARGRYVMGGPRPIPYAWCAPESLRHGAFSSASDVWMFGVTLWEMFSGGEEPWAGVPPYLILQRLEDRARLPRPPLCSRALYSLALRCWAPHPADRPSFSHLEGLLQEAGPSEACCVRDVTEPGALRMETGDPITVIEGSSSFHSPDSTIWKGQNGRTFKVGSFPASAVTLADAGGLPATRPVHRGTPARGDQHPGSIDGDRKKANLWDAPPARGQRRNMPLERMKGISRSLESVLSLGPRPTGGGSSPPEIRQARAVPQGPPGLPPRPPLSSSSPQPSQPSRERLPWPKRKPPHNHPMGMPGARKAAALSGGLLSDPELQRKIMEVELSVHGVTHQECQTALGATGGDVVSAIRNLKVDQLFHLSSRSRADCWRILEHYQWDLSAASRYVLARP

Structures are written as SMILES. Calls of active or inactive are those of the source. For most assays here, no stated cut-off is given here; in the data, actives have a measured Kd and inactives only a lower limit. Some results are limits rather than exact numbers.

Rho-associated protein kinase 2, sequence (O75116 whole entry): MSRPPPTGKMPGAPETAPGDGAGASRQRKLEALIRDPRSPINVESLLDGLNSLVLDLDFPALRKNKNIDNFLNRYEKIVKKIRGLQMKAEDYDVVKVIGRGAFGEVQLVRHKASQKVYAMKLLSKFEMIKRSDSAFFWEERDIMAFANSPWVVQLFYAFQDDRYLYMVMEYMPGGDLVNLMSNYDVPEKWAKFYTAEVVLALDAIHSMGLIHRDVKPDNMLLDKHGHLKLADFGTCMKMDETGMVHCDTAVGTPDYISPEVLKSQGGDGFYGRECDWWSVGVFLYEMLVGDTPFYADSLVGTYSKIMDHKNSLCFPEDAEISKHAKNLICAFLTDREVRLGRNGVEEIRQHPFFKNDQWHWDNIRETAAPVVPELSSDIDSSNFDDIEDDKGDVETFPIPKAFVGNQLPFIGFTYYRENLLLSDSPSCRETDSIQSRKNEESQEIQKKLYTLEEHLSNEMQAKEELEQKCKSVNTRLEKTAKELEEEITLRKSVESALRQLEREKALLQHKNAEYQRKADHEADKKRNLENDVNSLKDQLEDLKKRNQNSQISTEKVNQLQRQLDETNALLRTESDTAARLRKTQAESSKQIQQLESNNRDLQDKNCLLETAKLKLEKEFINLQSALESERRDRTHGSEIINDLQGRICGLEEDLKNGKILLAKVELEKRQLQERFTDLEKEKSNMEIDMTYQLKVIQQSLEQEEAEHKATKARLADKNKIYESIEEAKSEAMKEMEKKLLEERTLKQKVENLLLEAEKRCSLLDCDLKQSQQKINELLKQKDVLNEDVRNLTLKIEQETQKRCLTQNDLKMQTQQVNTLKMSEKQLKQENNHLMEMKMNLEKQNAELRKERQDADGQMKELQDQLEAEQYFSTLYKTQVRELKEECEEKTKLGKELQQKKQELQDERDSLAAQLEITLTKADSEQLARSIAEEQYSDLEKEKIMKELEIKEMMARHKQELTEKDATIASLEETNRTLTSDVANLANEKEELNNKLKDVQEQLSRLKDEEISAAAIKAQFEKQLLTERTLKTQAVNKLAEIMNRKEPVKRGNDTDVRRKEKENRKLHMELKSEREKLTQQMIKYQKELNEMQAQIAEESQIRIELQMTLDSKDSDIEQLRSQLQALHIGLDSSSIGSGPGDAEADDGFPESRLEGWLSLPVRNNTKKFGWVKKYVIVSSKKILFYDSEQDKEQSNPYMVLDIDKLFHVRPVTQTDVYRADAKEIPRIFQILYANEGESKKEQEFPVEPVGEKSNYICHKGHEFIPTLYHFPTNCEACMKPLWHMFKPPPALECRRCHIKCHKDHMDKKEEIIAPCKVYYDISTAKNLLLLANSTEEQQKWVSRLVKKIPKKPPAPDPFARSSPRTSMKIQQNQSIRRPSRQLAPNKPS
Mitogen-activated protein kinase kinase kinase 1, sequence (Q13233 whole entry): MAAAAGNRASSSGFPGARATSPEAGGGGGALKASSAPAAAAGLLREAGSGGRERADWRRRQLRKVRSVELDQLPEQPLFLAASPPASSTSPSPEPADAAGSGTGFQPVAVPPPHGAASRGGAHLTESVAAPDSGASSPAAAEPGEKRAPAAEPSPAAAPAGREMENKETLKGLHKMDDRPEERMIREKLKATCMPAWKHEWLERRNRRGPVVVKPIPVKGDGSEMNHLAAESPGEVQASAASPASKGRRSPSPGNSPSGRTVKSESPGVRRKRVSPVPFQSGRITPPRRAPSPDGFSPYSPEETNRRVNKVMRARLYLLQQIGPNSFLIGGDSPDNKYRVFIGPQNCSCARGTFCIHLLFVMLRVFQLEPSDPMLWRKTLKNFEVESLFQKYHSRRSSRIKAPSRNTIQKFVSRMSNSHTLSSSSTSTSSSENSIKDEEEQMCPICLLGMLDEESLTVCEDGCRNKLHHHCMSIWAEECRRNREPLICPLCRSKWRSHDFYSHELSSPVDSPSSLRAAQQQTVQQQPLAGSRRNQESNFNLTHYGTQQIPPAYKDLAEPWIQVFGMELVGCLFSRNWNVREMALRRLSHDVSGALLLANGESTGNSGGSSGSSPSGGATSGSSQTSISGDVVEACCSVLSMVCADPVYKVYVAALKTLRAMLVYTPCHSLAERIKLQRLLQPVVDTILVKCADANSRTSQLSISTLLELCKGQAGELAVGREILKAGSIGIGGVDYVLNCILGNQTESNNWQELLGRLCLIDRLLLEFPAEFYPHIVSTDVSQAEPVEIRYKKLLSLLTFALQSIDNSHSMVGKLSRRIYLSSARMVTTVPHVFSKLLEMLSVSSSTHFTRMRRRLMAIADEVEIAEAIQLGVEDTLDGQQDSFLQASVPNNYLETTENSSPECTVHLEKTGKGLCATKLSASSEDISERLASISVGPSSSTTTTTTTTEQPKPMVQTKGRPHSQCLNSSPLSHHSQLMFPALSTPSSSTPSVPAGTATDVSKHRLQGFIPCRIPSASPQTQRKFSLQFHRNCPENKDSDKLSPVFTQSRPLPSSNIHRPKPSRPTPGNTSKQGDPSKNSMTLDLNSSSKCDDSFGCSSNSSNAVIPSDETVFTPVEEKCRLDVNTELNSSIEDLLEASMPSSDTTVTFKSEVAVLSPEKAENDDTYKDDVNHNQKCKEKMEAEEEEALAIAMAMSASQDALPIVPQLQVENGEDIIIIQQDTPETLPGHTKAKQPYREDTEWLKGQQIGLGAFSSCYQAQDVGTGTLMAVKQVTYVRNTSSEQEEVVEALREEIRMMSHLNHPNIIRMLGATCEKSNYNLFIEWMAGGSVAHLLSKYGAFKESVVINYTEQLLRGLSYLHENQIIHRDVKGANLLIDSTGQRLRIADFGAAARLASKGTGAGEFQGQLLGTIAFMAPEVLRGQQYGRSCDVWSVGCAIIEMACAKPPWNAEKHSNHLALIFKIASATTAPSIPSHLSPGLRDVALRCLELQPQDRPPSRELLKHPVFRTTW
Obg-like ATPase 1, sequence (Q9NTK5 whole entry, looked up): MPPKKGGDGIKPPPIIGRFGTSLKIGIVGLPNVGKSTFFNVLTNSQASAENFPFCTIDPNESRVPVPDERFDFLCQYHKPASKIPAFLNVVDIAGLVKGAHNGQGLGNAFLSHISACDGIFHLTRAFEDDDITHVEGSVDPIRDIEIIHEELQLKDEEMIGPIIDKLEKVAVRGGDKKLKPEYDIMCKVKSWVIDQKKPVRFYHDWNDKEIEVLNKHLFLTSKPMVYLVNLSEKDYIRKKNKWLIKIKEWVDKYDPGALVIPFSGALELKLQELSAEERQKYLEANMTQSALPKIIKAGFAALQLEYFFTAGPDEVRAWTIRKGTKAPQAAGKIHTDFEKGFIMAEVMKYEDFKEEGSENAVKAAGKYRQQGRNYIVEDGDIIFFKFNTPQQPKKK
Serine/threonine-protein kinase SIK2, sequence (Q9H0K1 whole entry): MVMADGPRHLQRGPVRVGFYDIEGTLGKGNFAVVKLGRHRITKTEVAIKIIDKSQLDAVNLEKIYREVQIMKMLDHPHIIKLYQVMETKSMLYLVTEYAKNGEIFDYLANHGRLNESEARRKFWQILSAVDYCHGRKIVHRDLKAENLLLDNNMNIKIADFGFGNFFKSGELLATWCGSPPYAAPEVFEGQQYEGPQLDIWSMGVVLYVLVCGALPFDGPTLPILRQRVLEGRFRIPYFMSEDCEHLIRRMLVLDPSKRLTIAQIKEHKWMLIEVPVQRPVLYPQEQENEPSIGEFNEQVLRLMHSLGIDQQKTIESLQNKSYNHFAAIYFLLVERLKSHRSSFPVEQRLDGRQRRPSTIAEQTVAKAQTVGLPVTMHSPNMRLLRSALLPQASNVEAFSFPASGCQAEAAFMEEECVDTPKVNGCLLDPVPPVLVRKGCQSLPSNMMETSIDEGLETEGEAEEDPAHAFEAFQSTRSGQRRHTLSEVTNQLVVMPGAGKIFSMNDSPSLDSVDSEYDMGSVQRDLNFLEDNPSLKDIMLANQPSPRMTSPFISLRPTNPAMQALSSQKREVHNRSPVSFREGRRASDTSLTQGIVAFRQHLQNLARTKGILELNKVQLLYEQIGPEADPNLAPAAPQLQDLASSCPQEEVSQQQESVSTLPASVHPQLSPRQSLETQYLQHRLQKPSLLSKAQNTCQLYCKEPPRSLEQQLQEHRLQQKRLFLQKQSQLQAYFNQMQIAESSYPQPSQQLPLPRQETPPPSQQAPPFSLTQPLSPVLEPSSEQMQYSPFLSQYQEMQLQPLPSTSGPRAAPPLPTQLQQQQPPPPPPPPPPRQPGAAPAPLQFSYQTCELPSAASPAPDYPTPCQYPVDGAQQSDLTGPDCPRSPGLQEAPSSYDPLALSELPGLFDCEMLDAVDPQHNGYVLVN

Take `COc1cc(Nc2ncc3c(n2)-c2ccc(Cl)cc2C(c2c(F)cccc2OC)=NC3)ccc1C(=O)O` [ALISERTIB]: the Kd (in experiment [1]; in experiment [2]; at Obg-like ATPase 1; in [3]; in experiment [4]; in [5]) was > 30 µM (inactive) throughout. Moreover, the Kd in [6] is > 30 µM (inactive).
For the molecule `O=C(Nc1c[nH]nc1-c1nc2cc(CN3CCOCC3)ccc2[nH]1)NC1CC1` [AT-9283], the dissociation constant Kd in experiment [7] is 0.537 µM (active); at Obg-like ATPase 1, > 30 µM (inactive); in experiment [8] it was > 30 µM (inactive); in experiment [3], 0.03 µM (active); in experiment [4] it was > 30 µM (inactive); in experiment [5] it was 0.801 µM (active). Besides, the Kd in [6] is > 30 µM (inactive).
As to `CNC(=O)c1ccccc1Sc1ccc2c(/C=C/c3ccccn3)n[nH]c2c1` [AXITINIB], the Kd (at Obg-like ATPase 1; in experiment [6]) was > 30 µM (inactive) each time.
In the case of `CCn1c(C(=O)N(C2CC2)C2CC2)cc2c3c(ncn3C)c(Nc3cc(C)n(C)n3)nc21` [BMS-911543], the Kd (in experiment [7]; in experiment [9]; in experiment [1]; in experiment [2]; on Obg-like ATPase 1; in [8]) was > 30 µM (inactive) each time. For the same molecule, the Kd in experiment [3], in experiment [4], in experiment [5] and in experiment [10] was > 30 µM (inactive) throughout.
Regarding `CC(C)(C)c1nc(-c2cccc(NS(=O)(=O)c3c(F)cccc3F)c2F)c(-c2ccnc(N)n2)s1` [DABRAFENIB], the Kd was > 30 µM (inactive) in experiment [1]; > 30 µM (inactive) in experiment [2]; > 30 µM (inactive) at Obg-like ATPase 1; > 30 µM (inactive) in experiment [8]; 0.649 µM (active) in experiment [3]; > 30 µM (inactive) in [4]. The Kd in [5] is > 30 µM (inactive); in experiment [10], 0.066 µM (active); in [6], > 30 µM (inactive).
In the case of `C[C@@H](Oc1cc(-n2cnc3ccc(CN4CCN(C)CC4)cc32)sc1C(N)=O)c1ccccc1C(F)(F)F` [GSK-461364], the Kd (on Obg-like ATPase 1; in experiment [6]) was > 30 µM (inactive) in each case.
On to `CC(=O)NCC(=O)N1[C@@H]2CC[C@H]1c1ccc(Nc3ncc(C(F)(F)F)c(NC4CCC4)n3)cc12` [PF-03814735], for which the Kd was 2.18 µM in [1]; > 30 µM (inactive) in experiment [2]; > 30 µM (inactive) at Obg-like ATPase 1; 0.011 µM (active) in experiment [3]; 2.4 µM (active) in experiment [4]; 0.746 µM (active) in experiment [5]. In addition, the Kd in [10] was 0.369 µM (active).
For the molecule `CNC(=O)c1cc(Oc2ccc(NC(=O)Nc3cc(C(C)(C)C)nn3-c3ccc4ncccc4c3)c(F)c2)ccn1` [REBASTINIB], the dissociation constant Kd is 1.22 µM (active) in [7]; > 30 µM (inactive) in [1]; > 30 µM (inactive) in experiment [2]; > 30 µM (inactive) on Obg-like ATPase 1; > 30 µM (inactive) in [8]; > 30 µM (inactive) in experiment [3]. The dissociation constant (Kd) in experiment [4] was 14.2 µM (active); in [5] it was 1.88 µM (active); in [10], 0.055 µM (active); in experiment [6], > 30 µM (inactive).
As to `CO[C@H]1C[C@@H]2CC[C@@H](C)[C@@](O)(O2)C(=O)C(=O)N2CCCC[C@H]2C(=O)O[C@H]([C@H](C)C[C@@H]2CC[C@@H](OP(C)(C)=O)[C@H](OC)C2)CC(=O)[C@H](C)/C=C(\C)[C@@H](O)[C@@H](OC)C(=O)[C@H](C)C[C@H](C)/C=C/C=C/C=C/1C` [RIDAFOROLIMUS], the Kd in experiment [7], in experiment [9], in experiment [1], in experiment [2], in experiment [8] and in experiment [3] was > 30 µM (inactive) in each case. The Kd in experiment [4], in [5], in experiment [10] and in experiment [6] was > 30 µM (inactive) throughout.
`O=C(NOCCO)c1cc(CN2OCCCC2=O)c(F)c(F)c1Nc1ccc(I)cc1F` [RO-4987655]: the Kd (on Obg-like ATPase 1; in experiment [6]) was > 30 µM (inactive) in each case.
Turning to `CN1CCN(CCOc2cc(OC3CCOCC3)c3c(Nc4c(Cl)ccc5c4OCO5)ncnc3c2)CC1` [SARACATINIB], the equilibrium dissociation constant (Kd) in experiment [7] was 10.2 µM (active); in experiment [9] it was 0.14 µM; in experiment [1], > 30 µM (inactive); in [2], > 30 µM (inactive); in [8], > 30 µM (inactive); in experiment [3] it was 1.41 µM (active). The Kd in [4] is > 30 µM (inactive); in [5], 1.38 µM (active); in experiment [10], > 30 µM (inactive); in experiment [6], > 30 µM (inactive).
As for `CC(C)c1cc(CNc2nc(Nc3cc(C4CC4)[nH]n3)cc(N3CCN(C)CC3)n2)on1` [XL-228], the Kd in experiment [7] was 15.8 µM; in [9], 0.005 µM (active); in experiment [1], > 30 µM (inactive); in experiment [2], > 30 µM (inactive); in experiment [8], > 30 µM (inactive); in experiment [3], 1.8 µM (active). Besides, the Kd in [4] is > 30 µM (inactive); in experiment [5] it was 0.184 µM; in experiment [10], 0.003 µM (active); in experiment [6], > 30 µM (inactive).
`CN1C/C=C/CCOc2cccc(c2)-c2ccnc(n2)Nc2cccc(c2)C1` [ZOTIRACICLIB]: the Kd was > 30 µM (inactive) in [7]; 0.418 µM in [9]; > 30 µM (inactive) in experiment [1]; > 30 µM (inactive) in [2]; 59 µM in [8]; > 30 µM (inactive) in experiment [3]. In addition, the equilibrium dissociation constant (Kd) in experiment [4] is 2.86 µM (active); in experiment [5] it was > 30 µM (inactive); in experiment [10] it was > 30 µM (inactive); in [6], > 30 µM (inactive).

(Values after ChEMBL document CHEMBL3991601, “The target landscape of clinical kinase drugs” (Science, 2017).)
